# Reference: US6531645B1, “RAS/P21 transgenic mouse” (University of South Florida, priority 2000, dated 2003)
# Tested on: mammary tumors of MMTV/v-Ha-ras/p21WAF1 (−/−) transgenic mice
# Test: Antitumor efficacy of FTI-2148 in MMTV/v-Ha-ras/p21WAF1 (−/−) transgenic mice
# Format: in vivo, mouse
# Details: 50 mg/Kg/day by subcutaneous osmotic mini-pump
# Procedure: The MMTV/v-Ha-Ras/p21waf(−/−) transgenic mice are generated as described herein. When the three mammary tumors reach 4500 mm^3, 2000 mm^3 and 900 mm^3 (see FIG. 1), the mice are implanted subcutaneously with an osmotic mini-pump that delivers 50 mg/Kg/day of the farnesyltransferase inhibitor FTI-2148 that was designed to block oncogenic H-Ras malignant transformation. […] Thus, within 6 days of drug treatment one skilled in the art can determine whether a drug has antitumor activity.
# Tumor Development Monitoring and Sample Collection. The female offspring are monitored weekly for tumors by observation and palpation. Tumor diameters are measured in three dimensions using calipers, and tumor volume is calculated as length x width x height. Samples of tumor and normal tissue are collected in 10% neutral buffered formalin for histopathologic analysis. All surgical and experimental procedures performed on the mice are in accordance the NIH guidelines outlined in the “Guide for Care and Use of Laboratory Animals” (NIH publication 85-23). Animals are autopsied immediately after sacrifice, and external as well as internal organs are grossly examined. Representative tissue samples are obtained from salivary glands, mammary glands, lungs, liver, kidneys, spleen, and Harderian (lacrimal) glands. For general microscopy, tissues are embedded in paraffin, and 3 μm-thick sections are cut and stained with hematoxylin and eosin. Tissues are also processed using either an avidin-biotin complex method or a labeled streptavidin-biotin method after antigen retrieval. […] Negative and positive controls include the omission of the primary antibody and normal or tumor tissues with known high marker expression. p21^WAF1/CIP1 expression is analyzed by immunohistochemistry with an anti-p21 antibody (sc-397-G, Santa Cruz Biotechnology). […]
structure (smiles),measurement,setting,value
CSCC[C@H](NC(=O)c1ccc(CNCc2cnc[nH]2)cc1-c1ccccc1C)C(=O)O [FTI-2148],fate by day 15 of one of the three mammary tumors,day 15,one tumor disappears
same,tumor volume by day 15 of the two tumors that started out at 4500 mm^3 and 2000 mm^3,day 15,less than 500 mm^3
same,time of treatment within which the tumors start to regress,"three mammary tumors of 4500, 2000 and 900 mm^3 at start",≤ 6 days
